Values of other authors, collected in patent US11504411B1, “Herbal dietary supplement supporting healthy immune function” (Progressing Bodies, Inc., priority 2021, dated 2022).

How the values were obtained:
norovirus = settings: over the course of less than one hour
herpes simplex virus = settings: within just one hour

Structure (SMILES)	singlet oxygen quenching strength relative to CoQ10 (versus CoQ10) [times]	singlet oxygen quenching strength relative to green tea catechins (versus green tea catechins) [times]	singlet oxygen quenching strength relative to vitamin C (versus vitamin C)	inactivation of norovirus (norovirus)	herpes simplex virus inactivated (herpes simplex virus) [%]
CC1=C(/C=C/C(C)=C/C=C/C(C)=C/C=C/C=C(C)/C=C/C=C(C)/C=C/C2=C(C)C(=O)[C@@H](O)CC2(C)C)C(C)(C)C[C@H](O)C1=O [astaxanthin]	800	550	6,000 times		
Cc1ccc(C(C)C)cc1O [carvacrol]				inactivated norovirus	90
Cc1ccc(C(C)C)c(O)c1 [thymol]					90
